≈ marks a conversion by molar mass, not a printed value.
Tests used:
[1] = tested on: HepG2 cells
Procedure: HepG2 cells were aliquoted at a population of 5×10^4 counts per well of 96-well plates and grown at 37° C. in a 5% CO2 incubator for 1 day. The culture medium in each well was replaced with a fresh medium containing the compounds of interest, followed by overnight incubation in the incubator. Following the addition of 100 μl of a 100 μg/ml Neutral red solution into each well, the cells were stained for 3 hours in the incubator and fixed in 1% formaldehyde with 1% CaCl2. The cells were destained in 1% glacial acetic acid plus 50% ethanol, followed by measurement for absorbance at 540 nm. Cytotoxicity was expressed as percentages of optical density relative to that of the control, treated with none of the compounds.

[2] = tested on: Aspergillus fumigatus ATCC MYA-1163; assay: In vitro assay for antifungal activity (MIC90); assay type: cell-based; settings: RPMI 1640, growth read after 48 hours, duplicate
Procedure: (§1) Fungal strains to be tested were inoculated onto Sabouraud dextrose agar, YM agar, and potato dextrose agar and cultured at 35° C. for two to three days. Individual single colonies of the yeast fungi selected out of the cultured strains were suspended in 5 ml of 0.85% sterile saline, followed by correction to adjust the absorbance thereof at 530 nm to 0.108. The suspensions were diluted serially by 1:50 and then 1:20 in RPMI 1640 media to prepare liquid inocula ranging in cell count from 1.0×10^3 to 5.0×10^3 CFU/ml. As for filamentous fungi, their spores were suspended in 0.85% sterile saline and the suspensions were corrected with sterile saline to show optical transmittance at 530 nm of 80 to 82%. A dilution of 1:50 was made with RPMI 1640 media to prepare liquid inocula having cell counts from […] to 5×10^4 CFU/ml.
(§2) Antifungal samples were prepared by diluting the compounds of the present inventions in RPMI 1640 media to serial concentrations from 0.0625 to 32 μg/ml. As a vehicle, DMSO was contained in a final concentration of 1% (V/V) in the antifungal samples. 0.1 ml of each of the dilutions in series was added to equal volume of each of the fungal inocula.

[3] = tested on: Candida albicans ATCC 32033; assay: In vitro assay for antifungal activity (MIC90); assay type: cell-based; settings: duplicate; for MIC90 (concentration at which 90% of the fungi were inhibited compared to the negative control): RPMI 1640, growth read after 24 hours
Procedure: as §1, §2

[4] = tested on: Candida glabrata ATCC 34138; assay: In vitro assay for antifungal activity (MIC90); assay type: cell-based; settings: duplicate; for MIC90 (concentration at which 90% of the fungi were inhibited compared to the negative control): RPMI 1640, growth read after 24 hours
Procedure: as §1, §2

[5] = tested on: Cryptococcus neoformans ATCC 4065; assay: In vitro assay for antifungal activity (MIC90); assay type: cell-based; settings: for MIC90 (concentration at which 90% of the fungi were inhibited compared to the negative control): RPMI 1640, duplicate
Procedure: as §1, §2

[6] = tested on: Candida krusei ATCC 6258; assay: In vitro assay for antifungal activity (MIC90); assay type: cell-based; settings: duplicate; for MIC90 (concentration at which 90% of the fungi were inhibited compared to the negative control): RPMI 1640, growth read after 24 hours
Procedure: as §1, §2

[7] = tested on: Aspergillus flavus ATCC MYA-1004; assay: In vitro assay for antifungal activity (MIC90); assay type: cell-based; settings: RPMI 1640, growth read after 48 hours, duplicate
Procedure: as §1, §2

[8] = tested on: Aspergillus terreus ATCC 28301; assay: In vitro assay for antifungal activity (MIC90); assay type: cell-based; settings: duplicate; for MIC90 (concentration at which 90% of the fungi were inhibited compared to the negative control): RPMI 1640, growth read after 48 hours
Procedure: as §1, §2

[9] = tested on: Aspergillus niger ATCC 9142; assay: In vitro assay for antifungal activity (MIC90); assay type: cell-based; settings: duplicate; for MIC90 (concentration at which 90% of the fungi were inhibited compared to the negative control): RPMI 1640, growth read after 48 hours
Procedure: as §1, §2

[10] = tested on: Candida albicans (ATCC 36082); assay: In vivo assay for antifungal activity (survival of infected mice); settings: ICR mice infected i.v. with Candida albicans ATCC 36082; 20 mg/kg orally once a day for seven days (day 0 to day 6); groups of 10
Procedure: Candida albicans (ATCC 36082) was grown in YM broth on a rotary shaker (200 rpm, 26° C.) for about 12 hours to a concentration of 2.5×10^7 CFU/ml and used to infect ICR mice at a dose of 0.2 ml/head via caudal veins. Suspensions or solutions of the azole compounds in a 25% beta-hydroxypropyl methylcellulose base were orally administered at a dose of 20 mg/kg to respective infected ICR mice in groups of 10, the condition and body weights of the mice were monitored, and autopsies were finally conducted. For a negative control, the vehicle alone was used while fluconazole was administered to a positive control. The mice were inoculated once with the fungal preparation on the day of commencement of the administration. The test materials of interest and the positive control material were orally administered to the inoculated mice once a day for seven days from day 0 to day 6, with the first oral administration made five hours after the fungal inoculation (day 0). The periods of time for which the infected mice lived were counted.
The number of mice which survived the fungal infection for 21 days following the inoculation was represented as % survival for each test group, and the results are given in Table 11, below. All members of the negative control were dead 8 days after the fungal infection, while all of the groups administered with Compound 50 were dead 18 days after the fungal infection.

[11] = Assay for acute toxicity; assay type: in vivo; settings: mice; oral administration, to a dose of 1000 mg/kg; observed for two weeks; suspension in 25% beta-hydroxypropyl methylcellulose base or polyethylene glycol 400
[12] = read-out: MIC90 (concentration at which 90% of the fungi were inhibited compared to the negative control)

Structure (SMILES): C[C@@H](n1nc(Cl)c2ccccc21)[C@](O)(Cn1cncn1)c1ccc(F)cc1F [Example 52]
- Cytotoxicity (percentages of optical density relative to that of the control) [1]: 5.6%

Structure (SMILES): C[C@@H](n1cc2cc(Br)ccc2n1)[C@](O)(Cn1cncn1)c1ccc(F)cc1F [Example 60]
- MIC90 (concentration at which 90% of the fungi were inhibited compared to the negative control) [2]: 0.5 µg/mL
- MIC90 (concentration at which 90% of the fungi were inhibited compared to the negative control) [3]: ≦0.015 μg/ml
- MIC90 (concentration at which 90% of the fungi were inhibited compared to the negative control) [4]: 2 µg/mL
- MIC90 (concentration at which 90% of the fungi were inhibited compared to the negative control) [5]: 1 µg/mL
- MIC90 (concentration at which 90% of the fungi were inhibited compared to the negative control) [6]: 1 µg/mL
- MIC90 (concentration at which 90% of the fungi were inhibited compared to the negative control) [7]: 1 µg/mL
- MIC90 (concentration at which 90% of the fungi were inhibited compared to the negative control) [8]: 1 µg/mL
- MIC90 (concentration at which 90% of the fungi were inhibited compared to the negative control) [9]: 1 µg/mL
- % Survival on Day 21 [10]: 10%
- acute toxicity: toxic syndromes observed [11]: no toxic syndromes

Structure (SMILES): Cc1c2c(Cl)cccc2nn1[C@H](C)[C@](O)(Cn1cncn1)c1ccc(F)cc1F [Example 68]
- Cytotoxicity (percentages of optical density relative to that of the control) [1]: 2.4%

Structure (SMILES): Cc1nn([C@H](C)[C@](O)(Cn2cncn2)c2ccc(F)cc2F)c2cccc(Cl)c12 [Example 69]
- Cytotoxicity (percentages of optical density relative to that of the control) [1]: 1.6%

Structure (SMILES): C[C@@H](n1ncc2cc([N+](=O)[O-])ccc21)[C@](O)(Cn1cncn1)c1ccc(F)cc1F [Example 234, (2R,3R)-2-(2,4-difluorophenyl)-3-(5-nitro-1H-indazol-1-yl)-1-(1H-1,2,4-triazol-1-yl)butan-2-ol]
- MIC90 [2, 12]: 2 µg/mL (≈ 4.83 µM)
- MIC90 ([3]; ATCC32033, RPMI 1640, growth read after 24 hours, read-out: MIC90 (concentration at which 90% of the fungi were inhibited compared to the negative control)): ≤ 0.015 µg/mL
- MIC90 ([4]; Nakaseomyces glabratus, ATCC34138, RPMI 1640, growth read after 24 hours, read-out: MIC90 (concentration at which 90% of the fungi were inhibited compared to the negative control)): 4 µg/mL (≈ 9.65 µM)
- MIC90 ([5]; ATCC4065, RPMI 1640, duplicate, read-out: MIC90 (concentration at which 90% of the fungi were inhibited compared to the negative control)): 0.125 µg/mL (≈ 0.302 µM)
- MIC90 ([6]; Pichia kudriavzevii, ATCC6258, RPMI 1640, growth read after 24 hours, read-out: MIC90 (concentration at which 90% of the fungi were inhibited compared to the negative control)): 0.5 µg/mL (≈ 1.21 µM)
- MIC90 [7, 12]: 1 µg/mL (≈ 2.41 µM)
- MIC90 ([8]; ATCC28301, RPMI 1640, growth read after 48 hours, read-out: MIC90 (concentration at which 90% of the fungi were inhibited compared to the negative control)): 2 µg/mL (≈ 4.83 µM)
- MIC90 ([9]; ATCC9142, RPMI 1640, growth read after 48 hours, read-out: MIC90 (concentration at which 90% of the fungi were inhibited compared to the negative control)): 2 µg/mL (≈ 4.83 µM)
- % Survival on Day 21 [10]: 40%
- acute toxicity: toxic syndromes observed [11]: no toxic syndromes

Structure (SMILES): C[C@@H](n1ncc2cc(NCc3cccc(Cl)c3)ccc21)[C@](O)(Cn1cncn1)c1ccc(F)cc1F [Example 240]
- Cytotoxicity (percentages of optical density relative to that of the control) [1]: 5.2%

Structure (SMILES): C[C@@H](n1ncc2cc(N(C)C)ccc21)[C@](O)(Cn1cncn1)c1ccc(F)cc1F [Example 310]
- MIC90 (concentration at which 90% of the fungi were inhibited compared to the negative control) [2]: 2 µg/mL
- MIC90 (concentration at which 90% of the fungi were inhibited compared to the negative control) [3]: 0.063 µg/mL
- MIC90 (concentration at which 90% of the fungi were inhibited compared to the negative control) [4]: 8 µg/mL
- MIC90 (concentration at which 90% of the fungi were inhibited compared to the negative control) [5]: 0.5 µg/mL
- MIC90 (concentration at which 90% of the fungi were inhibited compared to the negative control) [6]: 1 µg/mL
- MIC90 (concentration at which 90% of the fungi were inhibited compared to the negative control) [7]: 1 µg/mL
- MIC90 (concentration at which 90% of the fungi were inhibited compared to the negative control) [8]: 2 µg/mL
- MIC90 (concentration at which 90% of the fungi were inhibited compared to the negative control) [9]: 2 µg/mL
- % Survival on Day 21 [10]: 40%
- acute toxicity: toxic syndromes observed [11]: no toxic syndromes

Source: US7812045B2, “Antifungal triazole derivatives” (Daewoong Pharmaceutical Co., Ltd., priority 2005, dated 2010)
